According to patent US10183021B2, “sGC stimulators” (Ironwood Pharmaceuticals, Inc., priority 2013, dated 2019):

What follows are compounds tested against soluble guanylate cyclase (sGC) (Homo sapiens (Human), UniProt Q02108+Q02153) (assay: sGC-HEK-cGMP assay, new protocol with DETA-NONOate, LC/MS detection (Example 2C)). Settings: read-out: Absolute EC50 (uM) - binned.
Type: cell-based
Procedure: Human embryonic kidney cells (HEK293), endogenously expressing soluble guanylate cyclase (sGC), were used to evaluate the activity of test compounds. Compounds stimulating the sGC enzyme should cause an increase in the intracellular concentration of cGMP. HEK 293 cells were seeded in Dulbecco's Modification of Eagle's Medium supplemented with fetal bovine serum (10% final) and penicillin (100 U/mL)/streptomycin (100 μg/mL) in a 50 μL volume at a density of 1.5×10^4 cells/well in a poly-D-lysine coated 384 well flat bottom plate. Cells were incubated overnight at 37° C. in a humidified chamber with 5% CO2. Medium was aspirated and cells were washed with 1× Hank's Buffered Saline Salt Solution (50 μL). Cells were then incubated for 15 minutes at 37° C. with 50 μL of a 0.5 mM 3-isobutyl-1-methylxanthine (IBMX) solution. Test article and Diethylenetriamine NONOate (DETA-NONOate) solutions (x μM concentration for test article solution and 10 μM concentration for DETA-NONOate solution; wherein x is one of the following concentrations);
were then added to the assay mixture and the resulting mixture incubated at 37° C. for 20 minutes. After the 20 minute incubation, the assay mixture was aspirated and 10% acetic acid containing 150 ng/mL+3-cGMP (internal standard for LCMS) (50 μL) was added to the cells. The plate was incubated at 4° C. for 30 minutes in the acetic acid solution to stop the reaction and lyse the cells. The plates were then centrifuged at 1,000 g for 3 minutes at 4° C. and the supernatant transferred to a clean reaction plate for LCMS analysis.
cGMP concentrations were determined from each sample using the LCMS conditions below (Table 5) and calculated standard curve.
Data were normalized to a high control using the following equation: 100*(Sample−Low Control)/(High Control−Low Control), where the low control is the average of 16 samples treated with 1% DMSO, and the high control is the average of 16 samples treated with 30 μM of 1-329 Data were fit using a 4-parameter fit (log(agonist) vs. response—variable slope) using GraphPad Prism Software v.5. n=2 for all compounds. […] Compounds failing to elicit a minimum response of 50% are reported as >30 μM.

Chain of soluble guanylate cyclase (sGC) (Q02153 whole entry): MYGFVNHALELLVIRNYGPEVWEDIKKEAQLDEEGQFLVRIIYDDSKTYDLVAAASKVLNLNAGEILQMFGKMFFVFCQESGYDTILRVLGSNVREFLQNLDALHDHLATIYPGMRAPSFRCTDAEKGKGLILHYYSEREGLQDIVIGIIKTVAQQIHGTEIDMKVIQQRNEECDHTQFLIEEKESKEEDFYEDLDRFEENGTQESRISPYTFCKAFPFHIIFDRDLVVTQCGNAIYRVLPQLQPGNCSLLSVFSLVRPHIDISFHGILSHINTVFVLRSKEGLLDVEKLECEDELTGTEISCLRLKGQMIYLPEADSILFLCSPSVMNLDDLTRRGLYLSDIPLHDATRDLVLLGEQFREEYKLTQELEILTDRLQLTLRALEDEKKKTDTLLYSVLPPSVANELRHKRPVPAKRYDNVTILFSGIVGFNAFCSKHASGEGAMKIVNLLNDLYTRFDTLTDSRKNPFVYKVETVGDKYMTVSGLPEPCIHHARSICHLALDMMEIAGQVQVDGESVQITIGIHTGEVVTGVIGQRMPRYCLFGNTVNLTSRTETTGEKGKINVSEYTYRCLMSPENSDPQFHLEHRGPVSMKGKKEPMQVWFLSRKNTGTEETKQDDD
Chain of soluble guanylate cyclase (sGC) (Q02108 whole entry): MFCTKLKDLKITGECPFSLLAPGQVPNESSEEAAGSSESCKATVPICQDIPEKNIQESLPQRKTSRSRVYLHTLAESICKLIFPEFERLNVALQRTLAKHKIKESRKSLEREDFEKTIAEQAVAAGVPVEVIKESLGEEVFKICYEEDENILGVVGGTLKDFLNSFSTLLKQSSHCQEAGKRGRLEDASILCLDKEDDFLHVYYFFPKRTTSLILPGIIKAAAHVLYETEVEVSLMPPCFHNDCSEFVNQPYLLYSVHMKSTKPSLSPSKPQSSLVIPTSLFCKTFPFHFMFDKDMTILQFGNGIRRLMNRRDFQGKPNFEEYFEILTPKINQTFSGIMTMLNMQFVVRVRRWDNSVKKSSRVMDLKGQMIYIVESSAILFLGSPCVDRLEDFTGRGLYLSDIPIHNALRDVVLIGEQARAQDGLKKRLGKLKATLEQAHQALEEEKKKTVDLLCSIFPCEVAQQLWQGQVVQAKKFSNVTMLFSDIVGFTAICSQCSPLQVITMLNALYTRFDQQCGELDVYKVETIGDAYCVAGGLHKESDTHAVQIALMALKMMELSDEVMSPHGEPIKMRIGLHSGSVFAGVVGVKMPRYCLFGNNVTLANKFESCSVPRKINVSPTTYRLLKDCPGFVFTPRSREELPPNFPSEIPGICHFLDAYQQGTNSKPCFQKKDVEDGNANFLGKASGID

SMILES | EC50 [µM]
O=C(O)[C@H]1[C@@H](Nc2nc(-c3cc(-c4ccon4)n(Cc4ccccc4F)n3)ncc2F)[C@@H]2CC[C@H]1O2 (racemic) [Compound I-384] | > 1
O=C(Nc1ccnc(-c2cc(-c3ccon3)n(Cc3ccccc3F)n2)n1)C1CCCO1 (centres unmarked) [Compound I-570] | 0.101 to 1
O[C@@H]1[C@H](O)CN(c2nc(-c3cc(-c4ccon4)n(Cc4ccccc4F)n3)ncc2F)C[C@@H]1O [Compound I-347] | < 0.1
O=S(=O)(Nc1nc(-c2cc(-c3ccon3)n(Cc3ccccc3F)n2)ncc1F)C1CC1 [Compound I-610] | 0.101 to 1
OC(CNc1nc(-c2cc(-c3ccon3)n(Cc3cccc(F)c3F)n2)ncc1F)(C(F)(F)F)C(F)(F)F [Compound I-488] | 0.101 to 1
CC(C)[C@H](Nc1nc(-c2cc(-c3ccon3)n(Cc3ccccc3F)n2)ncc1F)C(N)=O [Compound I-537] | < 0.1
O=C(Nc1nc(-c2cc(-c3ccon3)n(Cc3ccccc3F)n2)ncc1F)C1(C(F)(F)F)CC1 [Compound I-415] | > 1
O=C(NS(=O)(=O)C1CCN(c2nc(-c3cc(-c4ccon4)n(Cc4ccccc4F)n3)ncc2F)CC1)C1CC1 [Compound I-425] | < 0.1
COCC(=O)Nc1ccnc(-c2cc(-c3ccon3)n(Cc3ccccc3F)n2)n1 [Compound I-528] | > 1
NC(=O)[C@H](CO)Nc1nc(-c2cc(-c3ccon3)n(Cc3ccccc3F)n2)ncc1F [Compound I-335] | 0.101 to 1
O=C(CC(O)(C(F)(F)F)C(F)(F)F)Nc1ccnc(-c2cc(-c3ccon3)n(Cc3ccccc3F)n2)n1 [Compound I-490] | 0.101 to 1
O=C1NCC[C@@H]1Nc1nc(-c2cc(-c3ccon3)n(Cc3ccccc3F)n2)ncc1F [Compound I-356] | 0.101 to 1
CNC(=O)C(C)(O)CN(C)c1nc(-c2cc(-c3ccon3)n(Cc3ccccc3F)n2)ncc1F (centres unmarked) [Compound I-382] | < 0.1
O=S(=O)(NCCNc1nc(-c2cc(-c3ccon3)n(Cc3ccccc3F)n2)ncc1F)C(F)(F)F [Compound I-392] | < 0.1
OCC1(Nc2nc(-c3cc(-c4ccon4)n(Cc4ccccc4F)n3)ncc2F)CC1 [Compound I-502] | 0.101 to 1
O=C1C=C(O)CN(c2nc(-c3cc(-c4ccon4)n(Cc4ccccc4F)n3)ncc2F)C1 [Compound I-433] | > 1
COCCC(=O)Nc1ccnc(-c2cc(-c3ccon3)n(Cc3ccccc3F)n2)n1 [Compound I-547] | 0.101 to 1
O=C(Nc1ccnc(-c2cc(-c3ccon3)n(Cc3ccccc3F)n2)n1)c1ccncn1 [Compound I-555] | > 1
CC1(C(N)=O)CCN(c2nc(-c3cc(-c4ccon4)n(Cc4ccccc4F)n3)ncc2F)C1=O (centres unmarked) [Compound I-606] | 0.101 to 1
CC(=O)NS(=O)(=O)C1CCN(c2nc(-c3cc(-c4ccon4)n(Cc4ccccc4F)n3)ncc2F)CC1 [Compound I-426] | < 0.1
CC1(C)CCC(C(=O)O)N(c2nc(-c3cc(-c4ccon4)n(Cc4ccccc4F)n3)ncc2F)C1 (centres unmarked) [Compound I-268] | < 0.1
N#CC1(C(=O)Nc2nc(-c3cc(-c4ccon4)n(Cc4ccccc4F)n3)ncc2F)CC1 [Compound I-460] | > 1
CN(CC1(C(=O)O)CC1)c1nc(-c2cc(-c3ccon3)n(CCC(F)(F)F)n2)ncc1F [Compound I-523] | > 1
CN(Cc1nc(C(=O)O)cs1)c1nc(-c2cc(-c3ccon3)n(Cc3ccccc3F)n2)ncc1F [Compound I-373] | 0.101 to 1
CC1(C(=O)O)CCN(c2nc(-c3cc(-c4ccon4)n(Cc4ccccc4F)n3)ncc2F)C1=O (centres unmarked) [Compound I-604] | 0.101 to 1
NC(=O)C1CC(=O)N(c2nc(-c3cc(-c4ccon4)n(Cc4ccccc4F)n3)ncc2F)C1 (centres unmarked) [Compound I-590] | > 1
OC1(CNc2nc(-c3cc(-c4ccon4)n(Cc4ccccc4F)n3)ncc2F)CCOCC1 [Compound I-397] | < 0.1
OCC1(O)CCN(c2nc(-c3cc(-c4ccon4)n(Cc4ccccc4F)n3)ncc2F)CC1 [Compound I-434] | < 0.1
O=S(=O)(NC1(CNc2nc(-c3cc(-c4ccon4)n(Cc4ccccc4F)n3)ncc2F)CC1)C(F)(F)F [Compound I-354] | < 0.1
